Source: patent publication US10889563B2, “Deoxyuridine triphosphatase inhibitors” (University of Southern California, priority 2013, dated 2021)
pIC50: −log10 of the molar value.

Tests used:
HCT116 cells [1] = test: Colony formation assay, HCT116; assay type: cell-based
Procedure: Colony forming assay showing the ability of colon (SW620, HCT 116), non-small cell lung (A549, H460, H1299 and H358) and breast (MCF7) cancer cells to survive and proliferate following transient 24 hour exposure to single agent PCI 1013, FUdR and combinations. Specifically, cells were seeded at densities between 50 and 100 cells/well in 24-well plates. Twenty-four hours later, cells were treated with increasing concentrations of PCI 10213, a fixed dose of FUdR and combinations of these. After 24 hours, drug was removed, cells were rinsed and allowed to outgrow for 10-14 days. At the conclusion of the outgrowth, cells were fixed in 60% ice cold methanol and stained with 0.1% crystal violet, scanned and counted. Data is presented as percentage of untreated controls (mean±SD). Fraction affected and combination indexes were calculated according to the method of Chou and Talalay where <1 is indicative of a synergistic drug interaction. […]
(§1) In colorectal cancer cells, concentrations of PCI 10213 ranging from 3.1 μmol/L to 50 μmol/L were combined with 0.5 μmol/L FUdR in HCT116 cells and 1 μmol/L FUdR in SW620 cells.

[2] = system: NSCLC cells (H1299, A549, H358 and H460); test: Colony formation assay, NSCLC cells; assay type: cell-based; details: FUdR printed as One mol/L, vs vehicle-treated controls
Procedure: (§2) Colony forming assay showing the ability of colon (SW620, HCT 116), non-small cell lung (A549, H460, H1299 and H358) and breast (MCF7) cancer cells to survive and proliferate following transient 24 hour exposure to single agent PCI 1013, FUdR and combinations. Specifically, cells were seeded at densities between 50 and 100 cells/well in 24-well plates. Twenty-four hours later, cells were treated with increasing concentrations of PCI 10213, a fixed dose of FUdR and combinations of these. After 24 hours, drug was removed, cells were rinsed and allowed to outgrow for 10-14 days. At the conclusion of the outgrowth, cells were fixed in 60% ice cold methanol and stained with 0.1% crystal violet, scanned and counted. Data is presented as percentage of untreated controls (mean±SD). Fraction affected and combination indexes were calculated according to the method of Chou and Talalay where <1 is indicative of a synergistic drug interaction.
(§3) Subsequently, increasing concentrations of PCI 10213 were combined with a fixed dose of FUdR to evaluate the combined drug effect. In NSCLC cells, concentrations of PCI 10213 ranging from 3.1 μmol/L to 25 μmol/L were combined with 1 μmol/L FUdR. […] The effectiveness of this combination was pronounced in A549 and H460 cells where 12.5 and 25 μmol/L PCI 10213 combined with 1 μmol/L FUdR reduced cell viability by >95% compared to vehicle-treated controls.

[3] = system: colorectal (HCT116), breast (MCF-7) and non-small cell lung (H1299, A549, H358 and H460) cell line models; test: Colony formation assay, all cell lines evaluated; assay type: cell-based
Procedure: as §2, §3

[4] = system: MCF-7 breast cancer cell line; test: Colony formation assay, MCF-7; assay type: cell-based; details: MCF-7, 0.5 μmol/L
Procedure: as §2, §3

SW620 cells [5] = test: Colony formation assay, SW620; assay type: cell-based; details: SW620; PCI 10213 3.1 to 50 μmol/L or FUdR 1 μmol/L alone
Procedure: as §2, §1

HCT116 cells [6] = test: Colony formation assay, HCT116; assay type: cell-based; details: HCT116, 0.5 to 5 μmol/L (Example 23)
[7] = system: HCT-8 colorectal cell line model; test: Colony formation assay, HCT-8; assay type: cell-based; details: HCT-8, 1 μmol/L
Procedure: as §2
Colony forming assays were subsequently performed to evaluate the effectiveness of additional PCI compounds alone and in combination with FUdR at reducing cancer cell viability in the HCT-8 colorectal cell line model. […] Subsequently, increasing concentrations of PCI compounds were combined with a fixed dose of 1 μmol/L FUdR to evaluate the combined drug effect.

HCT116 cells [8] = system: HCT116 cells
A549 cells [9] = test: Colony formation assay, A549; assay type: cell-based; details: A549, 25 and 50 μmol/L single agent
Procedure: as §2, §3

SW620 cells [10] = test: MTS growth inhibition assay, SW620
Procedure: (§4) The Cell Titer^96 AQueous MTS assay (Promega) was carried out according to the manufacturers guidelines. […] The combination effect was determined by the combination index (CI) method utilizing Calcusyn software (Biosoft, Ferguson, Mo.). Fraction affected (FA) was calculated from the percent growth inhibition: FA=(100−% growth inhibition)/100. CI values <1, synergism; 1-1.2, additive and >1.2, antagonism.
HCT116 and SW620 cells were exposed to increasing concentrations of each agent for 72 hours and growth inhibition was directly compared to vehicle-treated controls.

HCT116 cells [11] = test: cells; details: Homo sapiens, HCT-116, read-out: growth inhibition as a single agent
H460 cells = test: Colony formation assay, H460; assay type: cell-based; details: H460, 25 and 50 μmol/L single agent
Procedure: as §2, §3

[12] = target: T1, Recombinant human deoxyuridine nucleotidohydrolase (dUTPase) (Homo sapiens, UniProt P33316); test: Fluorescence-based dUTPase inhibition assay (Example 19; 5 ng dUTPase, 8 min at 37° C.)
T1 sequence (P33316 1-164 isoform P33316-2): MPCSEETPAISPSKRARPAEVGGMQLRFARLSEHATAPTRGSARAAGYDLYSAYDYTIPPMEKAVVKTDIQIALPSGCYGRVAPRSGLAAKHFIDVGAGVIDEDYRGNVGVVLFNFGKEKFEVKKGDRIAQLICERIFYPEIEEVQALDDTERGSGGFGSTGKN
Source text: All drugs stocks were aliquoted and diluted as appropriate prior to use. The oligonucelotide primer, templates and fluorophore- and quencher-labeled detection probes are synthesized by Integrated DNA Technologies (Coralville, Iowa), subjected to polyacrylamide gel electrophoresis purification and reconstituted in Omnipur sterile nuclease-free water (EMD Chemicals USA, Gibbstown N.J.) at a stock concentration of 100 μmol/L. The two non-emissive (dark) quenching molecules incorporated into the detection probes include the Iowa black fluorescein quencher (IBFQ; absorption max 531 nm) and ZEN (non-abbreviation; absorption max 532 nm). The fluorescent label utilized was 6-FAM (5′-carboxyfluorescein; excitation max.=494 nm, emission max.=520 nm). Probes were further diluted to a working stock of 10 μmol/L and aliquoted to avoid repeated freeze/thaw cycles. AmpliTaq Gold DNA Polymerase, GeneAmp 10×PCR Buffer 2, MgCl2 and MicroAmp Optical 96-well Reaction Plates were purchased from Applied Biosystems (Carlsbad, Calif.). dNTPs were purchased individually at stock concentrations of 100 mmol/L from New England Biolabs at HPLC-certified >99% purity (Ipswich, Mass.).
Reaction mixtures contained primer, probe and template at an equimolar final concentration of 0.4 μmol/L. Magnesium chloride (MgCl2) was included at a final concentration of 2 mmol/L. Non-limiting dNTPs were included in the reaction mix in excess at a final concentration of 100 μmol/L (dUTP/dTTP was excluded). AmpliTaq Gold DNA polymerase was added at 0.875 U/reaction, 2.5 μl of 10×PCR buffer 2 added and nuclease-free ddH2O added to a final reaction volume of 25 μl. For dUTP inhibition analysis, the volume of ddH2O was further modified to accommodate an additional 1 μl of dUTPase (10 ng/μl) and 1 μl of inhibitor or DMSO control. Thermal profiling and fluorescence detection was performed using the ‘isothermal’ program on board an Applied Biosystems 7500 Real-Time PCR System. For analysis of dNTPs, the thermal profile consisted of an 8 min 37° C. step followed by a 10 min 95° C. step to ‘hot-start’ the Taq polymerase and a primer extension time of up to 30 min at 60° C. depending on the application. Raw fluorescence spectra for 6-FAM was measured using filter A at specified time intervals to follow assay progression using Sequence Detection Software (SDS Version 1.4, Applied Biosystems) and exported and analyzed in Microsoft Excel (Microsoft, Redmond Wash.) and Prism (GraphPad Software, La Jolla Calif.). In all cases, fluorescence values for blank reactions (limiting dNTP omitted) were subtracted to give normalized fluorescence units (NFU) to account for background fluorescence.
The assay employs a DNA polymerase-based approach utilizing an oligonucleotide template with 3 distinct regions: a 3′ primer binding region, a mid-template dUTP/thymidine triphosphate (TTP) detection region and a 5′ 6-Flavin adenine mononucleotide (FAM)-labeled probe binding region that incorporates a black hole quenching moiety.
reaction, the probe and primer hybridize to the oligonucleotide template to form the template:primer:probe complex. When Taq polymerase binds to the primer in the TPP complex and dUTP is present, successful extension of the nascent strand occurs and the inherent 5′ to 3′ exonuclease activity of Taq polymerase cleaves and displaces the 6-FAM-labeled probe in a 5′ to 3′ direction, releasing the 6-FAM fluorophore from its proximity to the three quenchers.

H1299 cells = test: MTS growth inhibition assay, H1299; details: H1299, 72 hours, 100 μmol/L single agent
Procedure: as §4
(§5) The NSCLC cell lines A549 and H1299 were exposed to increasing concentrations of each agent for 72 hours and growth inhibition was directly compared to vehicle-treated controls.

A549 cells [13] = test: MTS growth inhibition assay, A549; details: A549, 72 hours
Procedure: as §4, §5

Question: Which “number of colonies formed, FUdR alone” value (HCT116 cells [1]; HCT116, 0.5 μmol/L, vs vehicle-treated controls (Example 23)) does the source give for `O=c1[nH]c(=O)n([C@H]2C[C@H](O)[C@@H](CO)O2)cc1F` [FUdR, fluorodeoxyuridine, reference compound] here?
Answer: no significant effect on number of colonies formed

Question: And the “number of colonies formed, single agent” value (HCT116 cells [1]; HCT116, PCI 10213 3.1 to 50 μmol/L or FUdR 0.5 μmol/L alone)?
Answer: neither PCI 10213 or the fixed dose of FUdR single agent had any significant effect on the number of colonies formed

Question: What about the “number of colonies formed, FUdR alone” value [2] of the same molecule?
Answer: no significant effect on number of colonies formed

Question: And the “colonies formed, FUdR alone” value ([3]; all cell lines evaluated, 0.5 to 2.5 μmol/L)?
Answer: dose-dependent decreases in colonies formed

Question: What about the “number of colonies formed, FUdR alone” value [4] of the same molecule?
Answer: no significant impact on the number of colonies formed

Question: What about the “number of colonies formed, single agent” value (SW620 cells [5]) of the same molecule?
Answer: neither PCI 10213 or the fixed dose of FUdR single agent had any significant effect on the number of colonies formed

Question: And the “colonies formed, FUdR alone” value (HCT116 cells [6])?
Answer: dose-dependent decreases in colonies formed

Question: And the “colonies formed, FUdR alone” value [7]?
Answer: no substantial effect on colonies formed

Question: Which results are given for `C[C@@H](NS(=O)(=O)CC/C=C/Cn1ccc(=O)[nH]c1=O)c1cccc(OCC2CC2)c1` [PCI 10216, reference compound]?
Answer: decrease in growth / reduction in proliferation (HCT116 cells [8]; HCT116, 72 hours, 100 μmol/L single agent): 67%; lowest concentration with detectable decrease in cell proliferation (HCT116 cells [8]; HCT116, 72 hours, single agent): 6.25 µmol/L; combined effect with 5-FU on growth inhibition (HCT116 cells [8]; HCT116, fixed 25 μmol/L compound plus increasing 5-FU, up to 25 μmol/L 5-FU): additive and synergistic increases in growth inhibition; number of colonies formed, compound alone (A549 cells [9]): some reduction in the number of colonies formed; number of colonies formed, compound alone (HCT116 cells [1]; HCT116, 25 and 50 μmol/L single agent): some reduction in the number of colonies formed; growth inhibition as a single agent (SW620 cells [10]; SW620, 25 μmol/L single agent): 30%; single agent activity / decrease in proliferation (SW620 cells [10]; SW620, 72 hours, 100 μmol/L single agent): 70%; combined effect with 5-FU on growth inhibition (SW620 cells [10]; SW620, fixed 25 μmol/L compound plus increasing 5-FU, up to 25 μmol/L 5-FU): additive and synergistic increases in growth inhibition; inhibition at 25 µM (HCT116 cells [11]): 44%; number of colonies formed, compound alone (H460 cells): some reduction in the number of colonies formed; pIC50 [12]: 6.10; % Inhibition ([12]; 1.3 umol/L compound): 60.4%; inhibition at 1.3 µM ([12]; 1.3 umol/L compound): 60%; inhibition at 2.6 µM ([12]; 2.6 umol/L compound): 76.6%; inhibition at 5.2 µM ([12]; 5.2 umol/L compound): 84.6%; inhibition at 10.4 µM ([12]; 10.4 umol/L compound): 95.9%; inhibition at 20.8 µM ([12]; 20.8 umol/L compound): 101%; inhibition at 41.7 µM ([12]; 41.7 umol/L compound): 97.2%; % Inhibition ([12]; 83.3 umol/L compound): 95.4%; inhibition at 83.3 µM ([12]; 83.3 umol/L compound): 95%; decrease in cell proliferation (H1299 cells): 30%; combined drug effect with fixed doses of FUdR ([3]; all cell lines examined (Example 22)): strong synergy; reduction in proliferation (A549 cells [13]; 75 μmol/L single agent): 30%; decrease in growth / reduction in proliferation (A549 cells [13]; 100 μmol/L single agent): 55%
